Test system: Rattus norvegicus
Conditions: oral
[1] = short-term, duration: 28 days, gavage, M/F, Sprague-Dawley, Deaths + Clinical Observation: Tremor Locomotor activity decrease1000 Ptosis Prone position Lateral position Soiled peritoneal region …
[2] = subchronic, gavage, M, Sprague-Dawley, Clinical Observation: Salivation + Water Consumption: increase + Urinalysis: Urinary volume increase + Thyroid Hormone: Thyroid hormones', '…
[3] = subchronic, gavage, M, Sprague-Dawley, Absolute Organ Weight: Seminal vesicle increase, Prostate increase + Relative Organ Weight: Seminal vesicle increase, Prostate increase
[4] = short-term, duration: 28 days, gavage, F, Sprague-Dawley, Blood Chemistry: Glu decrease, ChE increase, BUN increase + Absolute Organ Weight: Thyroid increase(trend) + Relative Organ Weight: Thyroid …
[5] = short-term, duration: 28 days, gavage, M, Sprague-Dawley, Blood Chemistry: Glu decrease, ChE increase, BUN increase + Absolute Organ Weight: Thyroid increase(trend) + Relative Organ Weight: Thyroid …
[6] = short-term, duration: 28 days, gavage, M, Sprague-Dawley, Clinical Observation: Salivation + Urinalysis: Volume increase + Blood Chemistry: Ch E increase, T-CHO increase + Absolute Organ Weight: …
[7] = short-term, duration: 28 days, gavage, F, Sprague-Dawley, Deaths + Clinical Observation: Locomotor activity decrease, Salivation + Body Weight Changes: decrease, Gain decrease + Food Consumption: …
[8] = short-term, duration: 28 days, gavage, M, Sprague-Dawley, Deaths + Clinical Observation: Locomotor activity decrease, Salivation + Body Weight Changes: decrease, Gain decrease + Food Consumption: …

## Fc1ccc(Br)cc1F [4-Bromo-1,2-difluorobenzene]
short-term, duration: 28 days, gavage, M/F, Deaths + Clinical Observation: Locomotor activity decrease, Salivation Paleness of Auricle + Body Weight Changes: Gain decrease + …
  NOEL: 20 mg/kg-day

## Cc1cc(O)ccc1Cl [4-Chloro-3-methylphenol]
[1]
  LOAEL: 250 mg/kg-day
  LOEL: 250 mg/kg-day
  NOAEL: 60 mg/kg-day
  NOEL: 60 mg/kg-day

## O=C(Cl)c1ccc(Cl)cc1 [4-Chlorobenzoyl chloride]
[2]
  LOEL: 500 mg/kg-day
  NOEL: 100 mg/kg-day

## NCc1ccc(Cl)nc1 [5-(Aminomethyl)-2-chloropyridine]
short-term, duration: 28 days, gavage, M/F, Clinical Observation: Salivation Locomotor activity decrease, Respiration rate decrease, Ptosis Lacrimation + Body Weight Changes: Weight …
  NOEL: 8 mg/kg-day

## O=C(CO)[C@@H](O)[C@H](O)[C@H](O)CO[C@H]1O[C@H](CO)[C@@H](O)[C@H](O)[C@H]1O [6-O-Hexopyranosylhex-2-ulofuranose]
subchronic, duration: 13 weeks, diet, Wistar
  NOEL: 10%

## Oc1cccc2cccnc12 [8-Hydroxyquinoline]
subchronic, gavage, M, Sprague-Dawley, Clinical Observation: Salivation + Functional Observational Battery: Salivation + Body Weight Changes: Body weight gain decrease(tendency)…
  NOEL: 100 mg/kg-day

## CC/C=C\CCOC(C)=O [(3Z)-3-Hexenyl acetate]
[3]
  NOAEL: 1000 mg/kg-day
  NOEL: 300 mg/kg-day

## CCCCC/C=C/C=C/C=O [(E,E)-2,4-Decadienal]
chronic, duration: 14 weeks, gavage, M/F, Fischer 344, Clinical Observation: Lethargy + Body Weight Changes: Mean body weight decrease, Body weight gain decrease + Hematology: WBC decrease, SEG …
  NOAEL: 100 mg/kg-day

## C1=Cc2cccc3cccc1c23 [Acenaphthylene]
short-term, duration: 28 days, gavage, M/F, Crl:CD(SD), Deaths + Clinical Observation: Salivation, Rough coat, Wasting, Rearing cunut decrease + Functional Observational Battery: Forearm strength…
  NOEL: 4 mg/kg-day

## C1C2CC3CC1CC(C2)C3 [Adamantane]
[4]
  LOEL: 1000 mg/kg-day
  NOEL: 200 mg/kg-day
[5]
  LOEL: 40 mg/kg-day
  NOEL: < 40 mg/kg-day

## Nc1ccccc1C(=O)O [Anthranilic acid]
[6]
  NOAEL: 200 mg/kg-day
  NOEL: < 200 mg/kg-day

## O.O.[Ba+2].[Cl-].[Cl-] [Barium chloride dihydrate]
subchronic, duration: 13 weeks, water, F, Fischer 344, Deaths + Body Weight Changes: decrease + Water Consumption: decrease + Blood Chemistry: Pi increase + Absolute Organ Weight: Kidney increase…
  NOEL: 10 mg/kg-day
subchronic, duration: 13 weeks, water, M/F, Fischer 344, Deaths + Body Weight Changes: decrease + Water Consumption: decrease + Blood Chemistry: Pi increase + Absolute Organ Weight: Kidney increase…
  NOEL: 19 mg/kg-day

## NS(=O)(=O)c1ccccc1 [Benzenesulfonamide]
[7]
  LOAEL: 30 mg/kg-day
  LOEL: 30 mg/kg-day
  NOAEL: 6 mg/kg-day
  NOEL: 6 mg/kg-day
[8]
  LOAEL: 30 mg/kg-day
  LOEL: 30 mg/kg-day
  NOAEL: 6 mg/kg-day
  NOEL: 6 mg/kg-day

Reference: EPA's ToxValDB 9.5
